PubChem BioAssay (NCI)
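Where inhibition never reached the appropriate level, the endpoint shown equals the highest concentration tested. Otherwise, values were interpolated linearly from a five-concentration, 48-hour dose response in 96-well plates. The concentration for 50% growth inhibition is given as GI50. TGI denotes the concentration required for complete inhibition of growth.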

What was measured:
Assay in all cases: NCI-60 cell line screen, 48 h
K-562 leukemia = system: K-562 leukemia
MOLT-4 leukemia = system: MOLT-4 leukemia
SF-295 CNS = system: SF-295 CNS
MDA-MB-468 breast = system: MDA-MB-468 breast
LOX IMVI melanoma = system: LOX IMVI melanoma
U251 CNS = system: U251 CNS
NCI-H226 lung = system: NCI-H226 lung
786-0 renal = system: 786-0 renal
NCI-H522 lung = system: NCI-H522 lung
HT29 colon = system: HT29 colon
CCRF-CEM leukemia = system: CCRF-CEM leukemia
SW-620 colon = system: SW-620 colon
KM12 colon = system: KM12 colon
PC-3 prostate = system: PC-3 prostate
HS 578T breast = system: HS 578T breast
SN12C renal = system: SN12C renal
SK-OV-3 ovarian = system: SK-OV-3 ovarian
HCT-116 colon = system: HCT-116 colon
UO-31 renal = system: UO-31 renal
RPMI-8226 leukemia = system: RPMI-8226 leukemia
OVCAR-4 ovarian = system: OVCAR-4 ovarian
OVCAR-3 ovarian = system: OVCAR-3 ovarian
SF-268 CNS = system: SF-268 CNS
A498 renal = system: A498 renal
DU-145 prostate = system: DU-145 prostate
SR leukemia = system: SR leukemia
NCI-H460 lung = system: NCI-H460 lung
COLO 205 colon = system: COLO 205 colon
OVCAR-5 ovarian = system: OVCAR-5 ovarian
NCI-H23 lung = system: NCI-H23 lung
HCT-15 colon = system: HCT-15 colon
HOP-92 NSCLC = system: HOP-92 NSCLC
SK-MEL-2 melanoma = system: SK-MEL-2 melanoma
SK-MEL-28 melanoma = system: SK-MEL-28 melanoma
SNB-19 CNS = system: SNB-19 CNS
EKVX NSCLC = system: EKVX NSCLC
HOP-62 NSCLC = system: HOP-62 NSCLC
BT-549 breast = system: BT-549 breast
MDA-MB-435 = system: MDA-MB-435
UACC-62 melanoma = system: UACC-62 melanoma
HL-60(TB) leukemia = system: HL-60(TB) leukemia
SNB-75 CNS = system: SNB-75 CNS
MALME-3M melanoma = system: MALME-3M melanoma
MDA-MB-231 breast = system: MDA-MB-231 breast
TK-10 renal = system: TK-10 renal
MCF7 breast = system: MCF7 breast
NCI/ADR-RES ovarian = system: NCI/ADR-RES ovarian
RXF 393 renal = system: RXF 393 renal
SF-539 CNS = system: SF-539 CNS
HCC-2998 colon = system: HCC-2998 colon
UACC-257 melanoma = system: UACC-257 melanoma
A549 NSCLC = system: A549 NSCLC
OVCAR-8 ovarian = system: OVCAR-8 ovarian
CAKI-1 renal = system: CAKI-1 renal
SK-MEL-5 melanoma = system: SK-MEL-5 melanoma
T-47D breast = system: T-47D breast
M14 melanoma = system: M14 melanoma
ACHN renal = system: ACHN renal
IGROV1 ovarian = system: IGROV1 ovarian

Q: What does the source list for `COc1sc(/C=N/NC(=O)c2[nH]c3ccc(Br)cc3c2-c2ccccc2)cc1Cl`?
A: GI50 (K-562 leukemia): 502 nM; TGI (K-562 leukemia): > 100 µM; GI50 (MOLT-4 leukemia): 3.3 µM; TGI (MOLT-4 leukemia): 26.7 µM; GI50 (SF-295 CNS): 1200 nM; TGI (SF-295 CNS): 27.2 µM; GI50 (MDA-MB-468 breast): 895 nM; TGI (MDA-MB-468 breast): 5.54 µM; GI50 (LOX IMVI melanoma): 1610 nM; TGI (LOX IMVI melanoma): 40.7 µM; GI50 (U251 CNS): 3.39 µM; TGI (U251 CNS): 86.6 µM; GI50 (NCI-H226 lung): 2120 nM; TGI (NCI-H226 lung): 8.3 µM; GI50 (786-0 renal): 2780 nM; TGI (786-0 renal): 41.9 µM; GI50 (NCI-H522 lung): 200 nM; TGI (NCI-H522 lung): 566 nM; GI50 (HT29 colon): 1070 nM; TGI (HT29 colon): 7.46 µM; GI50 (CCRF-CEM leukemia): 3.09 µM; TGI (CCRF-CEM leukemia): > 100 µM; GI50 (SW-620 colon): 2880 nM; TGI (SW-620 colon): > 100 µM; GI50 (KM12 colon): 2790 nM; TGI (KM12 colon): > 100 µM; GI50 (PC-3 prostate): 3.06 µM; TGI (PC-3 prostate): > 100 µM; GI50 (HS 578T breast): 1730 nM; TGI (HS 578T breast): 44.4 µM; GI50 (SN12C renal): 3.16 µM; TGI (SN12C renal): > 100 µM; GI50 (SK-OV-3 ovarian): 741 nM; TGI (SK-OV-3 ovarian): 22.8 µM; GI50 (HCT-116 colon): 1740 nM; TGI (HCT-116 colon): 10.1 µM; GI50 (UO-31 renal): 2210 nM; TGI (UO-31 renal): > 100 µM; GI50 (RPMI-8226 leukemia): 1960 nM; TGI (RPMI-8226 leukemia): > 100 µM; GI50 (OVCAR-4 ovarian): 6.38 µM; TGI (OVCAR-4 ovarian): > 100 µM; GI50 (OVCAR-3 ovarian): 607 nM; TGI (OVCAR-3 ovarian): 11.1 µM; GI50 (SF-268 CNS): 2670 nM; TGI (SF-268 CNS): > 100 µM; GI50 (A498 renal): 11.1 µM; TGI (A498 renal): 53.7 µM; GI50 (DU-145 prostate): 3.23 µM; TGI (DU-145 prostate): 32.5 µM; GI50 (SR leukemia): 1000 nM; TGI (SR leukemia): > 100 µM; GI50 (NCI-H460 lung): 2790 nM; TGI (NCI-H460 lung): 10.7 µM; GI50 (COLO 205 colon): 294 nM; TGI (COLO 205 colon): 728 nM; GI50 (OVCAR-5 ovarian): 3.28 µM; TGI (OVCAR-5 ovarian): 72.9 µM; GI50 (NCI-H23 lung): 3.72 µM; TGI (NCI-H23 lung): > 100 µM; GI50 (HCT-15 colon): 2960 nM; TGI (HCT-15 colon): > 100 µM; GI50 (HOP-92 NSCLC): 9.72 µM; TGI (HOP-92 NSCLC): > 100 µM; GI50 (SK-MEL-2 melanoma): 1540 nM; TGI (SK-MEL-2 melanoma): > 100 µM; GI50 (SK-MEL-28 melanoma): 3.26 µM; TGI (SK-MEL-28 melanoma): > 100 µM; GI50 (SNB-19 CNS): 4.22 µM; TGI (SNB-19 CNS): > 100 µM; GI50 (EKVX NSCLC): 4.49 µM; TGI (EKVX NSCLC): > 100 µM; GI50 (HOP-62 NSCLC): 1000 nM; TGI (HOP-62 NSCLC): 13.1 µM; GI50 (BT-549 breast): 3.72 µM; TGI (BT-549 breast): 8.48 µM; GI50 (MDA-MB-435): 346 nM; TGI (MDA-MB-435): 2600 nM; GI50 (UACC-62 melanoma): 696 nM; TGI (UACC-62 melanoma): > 100 µM; GI50 (HL-60(TB) leukemia): 1520 nM; TGI (HL-60(TB) leukemia): 5.23 µM; GI50 (SNB-75 CNS): 740 nM; TGI (SNB-75 CNS): 26.9 µM; GI50 (MALME-3M melanoma): 3.98 µM; TGI (MALME-3M melanoma): > 100 µM; GI50 (MDA-MB-231 breast): 3.23 µM; TGI (MDA-MB-231 breast): 43.1 µM; GI50 (TK-10 renal): 4.48 µM; TGI (TK-10 renal): > 100 µM; GI50 (MCF7 breast): 447 nM; TGI (MCF7 breast): > 100 µM; GI50 (NCI/ADR-RES ovarian): 649 nM; TGI (NCI/ADR-RES ovarian): 4.58 µM; GI50 (RXF 393 renal): 935 nM; TGI (RXF 393 renal): > 100 µM; GI50 (SF-539 CNS): 1230 nM; TGI (SF-539 CNS): 4.55 µM; GI50 (HCC-2998 colon): 3.74 µM; TGI (HCC-2998 colon): > 100 µM; GI50 (UACC-257 melanoma): 5.78 µM; TGI (UACC-257 melanoma): > 100 µM; GI50 (A549 NSCLC): 2640 nM; TGI (A549 NSCLC): > 100 µM; GI50 (OVCAR-8 ovarian): 690 nM; TGI (OVCAR-8 ovarian): 11.5 µM; GI50 (CAKI-1 renal): 798 nM; TGI (CAKI-1 renal): 94.6 µM; GI50 (SK-MEL-5 melanoma): 1730 nM; TGI (SK-MEL-5 melanoma): 4.36 µM; GI50 (T-47D breast): 6.62 µM; TGI (T-47D breast): > 100 µM; GI50 (M14 melanoma): 2120 nM; TGI (M14 melanoma): > 100 µM; GI50 (ACHN renal): 2380 nM; TGI (ACHN renal): > 100 µM; GI50 (IGROV1 ovarian): 3.05 µM; TGI (IGROV1 ovarian): 30.7 µM
